Holding throughout (assay type): functional
In one assay the test system is Neisseria gonorrhoeae. Description: Antimicrobial activity against Neisseria gonorrhoeae ATCC 49226 by antimicrobial susceptibility testing.
For the next assay, the system named is DU-145. The assay can be described thus: Anticancer activity against human DU145 cells after 48 hrs by SRB assay. To be noted: DU-145, 48 h, read-out: ED50 (the source's name).
For the next assay, the system named is P388. Description: Anticancer activity against mouse P388 cells after 48 hrs. Conditions: P388, 48 h, read-out: ED50 (the source's name).
For the next assay, the system named is BXPC-3. Description: Anticancer activity against human BxPC3 cells after 48 hrs by SRB assay. To be noted: BXPC-3, 48 h, read-out: ED50 (the source's name). In general terms: In SRB staining, fixed cells bind dye roughly in proportion to their protein.
For the next assay, the system named is MCF7. Description: Anticancer activity against human MCF7 cells after 48 hrs by SRB assay. To be noted: MCF7, 48 h, read-out: ED50 (the source's name).
A further assay concerns SF-268. The assay can be described thus: Anticancer activity against human SF268 cells after 48 hrs by SRB assay. Conditions: SF-268, 48 h, read-out: ED50 (the source's name).
In another assay the test system is NCI-H460. Description: Anticancer activity against human NCI-H460 cells after 48 hrs by SRB assay. Conditions: NCI-H460, 48 h, read-out: ED50 (the source's name).
A further assay deals with KM-20L2. The assay can be described thus: Anticancer activity against human KM20L2 cells after 48 hrs by SRB assay. Conditions: KM-20L2, 48 h, read-out: ED50 (the source's name).

In brackets after ≈: the same amount, converted by molar mass.

As for `COc1ccc(C[C@H]2COC(=O)[C@@H]2Cc2ccc(OC)c(OC)c2)cc1OC`, in the assay with Neisseria gonorrhoeae, the minimal inhibitory concentration (MIC) came out at 32 µg/mL (≈ 82.8 µM).

As for `COc1cc([C@@H]2OC[C@H]3[C@@H]2CO[C@@H]3c2ccc3c(c2)OCO3)cc(OC)c1OC`, the EC50 in the assay on DU-145 was greater than 10 µg/mL; in the assay on P388 it was 1.5 µg/mL (≈ 3.75 µM); with BXPC-3 it was greater than 10 µg/mL; in the assay on MCF7, greater than 10 µg/mL; in the assay with SF-268 it was greater than 10 µg/mL; in the assay with NCI-H460, greater than 10 µg/mL. Also, in the assay with KM-20L2, the EC50 was greater than 10 µg/mL.

Turning to `COc1ccc([C@H]2OC[C@H]3[C@@H]2CO[C@H]3c2ccc(OC)c(OC)c2)cc1OC`, the EC50 in the assay on DU-145 stood at 3.1 µg/mL (≈ 8.02 µM); in the assay with P388, 1.7 µg/mL (≈ 4.4 µM); in the assay with BXPC-3, 3.4 µg/mL (≈ 8.8 µM); with MCF7, 3.5 µg/mL (≈ 9.06 µM); with SF-268, 3.8 µg/mL (≈ 9.83 µM); in the assay with NCI-H460, 3.8 µg/mL (≈ 9.83 µM). In the assay with KM-20L2, the EC50 stood at 3 µg/mL (≈ 7.76 µM).

Take `COc1cc2c(c(OC)c1OC)[C@]13C=C(O)C(=O)C=C1O[C@H]2[C@H]1C(=O)OC[C@@H]1C3`: 32 µg/mL (≈ 79.9 µM) was the least that counted as inhibitory against Neisseria gonorrhoeae (MIC).

`COc1cc(CC2C(Cc3ccc4c(c3)OCO4)COC2O)cc(OC)c1OC` (stereo not given) [CLUSIN] returned a minimal inhibitory concentration (MIC) with Neisseria gonorrhoeae of 32 µg/mL (≈ 79.5 µM).

Compound `COc1cc([C@@H]2c3cc4c(cc3C[C@H]3COC(=O)[C@H]32)OCO4)cc(OC)c1OC` [DEOXYPICROPODOPHYLLIN] yielded a minimal inhibitory concentration (MIC) against Neisseria gonorrhoeae of 32 µg/mL (≈ 80.3 µM). Also, the EC50 was determined as 0.051 µg/mL (≈ 0.128 µM) in the assay with DU-145; 0.03 µg/mL (≈ 0.0753 µM) in the assay on P388; 0.061 µg/mL (≈ 0.153 µM) with BXPC-3; 0.026 µg/mL (≈ 0.0653 µM) in the assay on MCF7; 0.041 µg/mL (≈ 0.103 µM) in the assay with SF-268; 0.067 µg/mL (≈ 0.168 µM) in the assay on NCI-H460. The EC50 with KM-20L2 was 0.054 µg/mL (≈ 0.136 µM).

In the assay with Neisseria gonorrhoeae, `COc1cc([C@@H]2c3cc4c(cc3C[C@H]3COC(=O)[C@@H]32)OCO4)cc(OC)c1OC` [DESOXYPODOPHYLLOTOXIN] yielded a minimum inhibitory concentration (MIC) of 32 µg/mL (≈ 80.3 µM). Moreover, the EC50 with DU-145 came out at 0.0028 µg/mL (≈ 0.00703 µM); with P388, 0.0023 µg/mL (≈ 0.00577 µM); in the assay with BXPC-3, 0.0029 µg/mL (≈ 0.00728 µM); in the assay with MCF7, 0.0021 µg/mL (≈ 0.00527 µM); in the assay with SF-268, 0.0033 µg/mL (≈ 0.00828 µM); in the assay with NCI-H460 it was 0.0027 µg/mL (≈ 0.00678 µM). The EC50 in the assay on KM-20L2 was found to be 0.0028 µg/mL (≈ 0.00703 µM).

For the compound `COc1cc(C[C@H]2COC(=O)[C@@H]2Cc2cc(OC)c(OC)c(OC)c2)ccc1O` [HERNANOL], the minimum inhibitory concentration (MIC) in the assay on Neisseria gonorrhoeae was 32 µg/mL (≈ 79.5 µM).

With `COc1ccc(CC2COC(O)C2Cc2ccc(OC)c(OC)c2)cc1OC` (stereo not given) [KUSUNOKINOL], inhibition of growth against Neisseria gonorrhoeae (MIC) required 32 µg/mL (≈ 82.4 µM).

In the assay with Neisseria gonorrhoeae, `COc1cc([C@@H](O)[C@H]2C(=O)OC[C@@H]2Cc2ccc3c(c2)OCO3)cc(OC)c1OC` [PODORHIZOL] gave a minimum inhibitory concentration (MIC) of 32 µg/mL (≈ 76.8 µM). For the same compound, the EC50 with DU-145 was greater than 10 µg/mL; with P388, greater than 1 µg/mL; with BXPC-3, 3.8 µg/mL (≈ 9.13 µM); with MCF7 it was 6.6 µg/mL (≈ 15.8 µM); in the assay on SF-268, greater than 10 µg/mL; in the assay with NCI-H460, greater than 10 µg/mL. The EC50 in the assay with KM-20L2 was greater than 10 µg/mL.

Consider `COc1cc2c(c(OC)c1OC)-c1cc3c(cc1C[C@H]1COC(=O)[C@@H]1C2)OCO3` [STEGANE], for which the EC50 stood at 5.3 µg/mL (≈ 13.3 µM) with DU-145; 6.1 µg/mL (≈ 15.3 µM) with P388; 4.7 µg/mL (≈ 11.8 µM) in the assay on BXPC-3; 4.3 µg/mL (≈ 10.8 µM) in the assay on MCF7; 4.9 µg/mL (≈ 12.3 µM) in the assay with SF-268; 5.8 µg/mL (≈ 14.6 µM) in the assay on NCI-H460. Further, in the assay with KM-20L2, the EC50 is 4.8 µg/mL (≈ 12 µM).

Broadly, the MIC is the smallest concentration in the dilution series that meets the test's criterion for growth inhibition.

These data come from ChEMBL document CHEMBL1146479, “Antineoplastic agents. 522. Hernandia peltata (Malaysia) and Hernandia nymphaeifolia (Republic of Maldives)” (2004).
